# Reference: US10137079B2, “Transdermal composition for treating pain” (priority 2014, dated 2018)
# Experiments:
# [1] = tested on: skin; conditions: in vivo
# Description: Menthol can optionally be added to overcome the burning sensation caused by the capsaicin. […] 13, 2012 has reported that skin can burn with menthol concentrations above 3% (http://www.fda.gov/Drugs/DrugSafety/ucm318858.htm). Thus, in one embodiment, the concentration of menthol in the ethosome compositions is less than about 3% by weight. In another embodiment, the concentration of menthol in the ethosome compositions is about 2% by weight.
# [2] = tested on: skin; conditions: FDA Safety Announcement Sep. 13, 2012; cited from earlier work
structure (smiles),measurement,setting,value
CC1CCC(C(C)C)C(O)C1 (centres unmarked) [Menthol],burning sensation,[1],can cause a burning sensation on its own
same,menthol concentrations at which skin can burn,[2],above 3%
